# Test results taken from PMC10613275 (Scientific Reports, 2023).
# Read-outs that look alike come from different tables or passages of the source.
# How the values were obtained:
# [1] = test system: complexes I and II of the electron transport chain; conditions: cited from earlier work
# [2] = test system: Salmonella strains; conditions: up to 5000 µg/plate with or without metabolic activation ref 4; cited from earlier work
# [3] = parameters: method as in PMID 24239523; conditions: concentrations up to 500 μM ref 5; cited from earlier work
# [4] = test system: HeLa cells; assay: γH2AX biomarker-based genotoxicity assay, HeLa; format: cell-based, human; conditions: for MoA (mean fluorescence values over area of the nuclei): PC 30 μM
# Description: Briefly, HeLa and CHO-K1 cells were seeded at a concentration of 1 × 10^5 cells/ml into the 96-well plates. CHO-K1 cells were used for comparison with HPRT test. HeLa cells were recommended by the manufacturer of the kit. After 24 h, cells were rinsed with PBS and cultivation medium (“Cell lines” Section) without ATB, with a reduced content of FBS (5%) was added. 30 µM valinomycin (in DMSO) was used as a positive control Samples were applied in the presence of non-toxic sample concentrations, i.e. 100 µM either with or without S9 mix. […] Cells were photographed using a fluorescence microscope (Olympus IX83); filters: DAPI (500 ms) and Cy3 (500 ms). Bioimage analysis in ImageJ software was performed as described previously.
# [5] = test system: ARE-Nrf2 luciferase (KeratinoSens); parameters: method as in PMID 23576290; conditions: cited from earlier work
# [6] = test system: Caco-2 cells; conditions: Caco-2, 100 µM ref 2; cited from earlier work
# [7] = test system: MCF-7 human breast cancer cells; conditions: cited from earlier work
# [8] = test system: HaCaT cells; conditions: 10 µM ref 2; cited from earlier work
# [9] = test system: NRF2-ARE signal pathway; assay: NRF2-ARE signal pathway activation, luciferase reporter in transfected HEK293; format: cell-based, human; conditions: HEK293, 100 µM (Table 1), 18 h
# Text: […]. HEK293 cells were transiently transfected with reporter plasmid pGL4.32 (luc2P/NF-κB-RE/Hygro, Promega Corporation, Madison, Wisconsin, USA) or pGL4.37 (luc2P/NRF2-ARE/Hygro) using FuGENE (Promega Corporation). Plasmid pEGFP-C1 carrying the gene for green fluorescent protein (GFP) was co-transfected with the reporter plasmids as a normalization plasmid enabling normalization of the signal to transfection level. To test the activation of NF-κB pathway, TNFα (in the range from 13 to 200 pg/ml) as a positive control or samples (50 µM) were incubated with the cells for 5 h. […] The fluorescence (488/513 nm) was determined using SpectraMax i3x Multi-Mode Microplate Reader (Molecular Devices, San Jose, California, USA). Subsequent quantification of luciferase activity was performed using the Bright-Glo™ Luciferase Assay System (Promega Corporation) according to the manufacturer’s instructions.
# [10] = test system: CHO-K1 cells (hprt gene); assay: CHO/HPRT mutation assay; format: cell-based, Chinese hamster; conditions: lilial 500 µM, 3MC 2 µg/ml
# [11] = test system: CHO-K1 cells (hprt gene); assay: CHO/HPRT mutation assay; format: cell-based, Chinese hamster; conditions: for Mutagenicity result: 50 µM without, 500 µM with metabolic activation
# Description: The test with metabolic activation was performed as described in the OECD protocol, the ASTM standard[23] and other protocols[30],[31] and publications. For the test, cryopreserved CHO-K1 cells after the mutant cleansing were used. Mutant cleansing was performed according to[30], i.e. cells were cultivated three days in HAT medium, one day in HT medium and then frozen.
# One passage after the thawing, 1 × 10^6 cells were seeded in 60 mm cultivation plates as described in[32]. […] The final concentration of the solvent, DMSO, was 1%. […] EMS at final concentration 2 mM as recommended in[31] served as a positive control. 3-MC at final concentration […][22] served as a positive control for metabolic activation. 1% DMSO was used as a VC. Sole cultivation medium served as a negative control (NC). After 4 h, the medium with tested substances was removed, plates were washed with PBS and fresh medium with 10% FBS was added.
# During the expression period (1 week), the cells on all 60 mm plates were passaged once. On day 8, cells were trypsinized, resuspended, counted and 2 × 10^5 cells of each plate were seeded on 60 mm plates in triplicates in the presence of a selective agents, 6-TG (30 µM) as described in[32]. […] 300 cells without the selective agent were seeded in a parallel to evaluate plating efficiency (PE). On day 15, the plates were washed with PBS, cells were fixed with ice cold methanol for 10 min and stained with 0.05% crystal violet in water for 30 min[33]. After washing with water, formed colonies were counted using Schuett Count (Schuett-biotec, Göttingen, Germany). Calculations were done as described in[29]. PE was calculated according to a general Eq. 1. Particular PE at selective conditions was calculated according to Eq. 2. Particular PE at non-selective conditions was calculated according to Eq. 3. Mutation frequency (MF) was calculated according to Eq. 4.1 PE=numberofcoloniesformed/numberofcellsplated 2 PEselective=numberofmutantcoloniesNMC/200,000 3 PEnon-selective=numberofcoloniesformed/300 4 MF=PEselectiveconditions/PEnon-selectiveconditions
# [12] = test system: NRF2 protein in THP-1 cells; conditions: 650 µM, 5 h ref 15; cited from earlier work
# [13] = test system: rats; parameters: method as in PMID 32461162; conditions: parental rats F0 and F1 in vivo ref 3; cited from earlier work
# [14] = parameters: method as in earlier work; conditions: guinea pigs, 1% p-BMHCA in ethanol, 120 µg substance/cm^2, 16 h ref 4; cited from earlier work
# [15] = parameters: method as in earlier work; conditions: rat, 1% p-BMHCA in ethanol, 120 µg substance/cm^2, 16 h ref 4; cited from earlier work
# [16] = test system: rats; conditions: rat, in vivo; cited from earlier work
# [17] = test system: fertilized eggs of white turkey (Meleagris gallopavo); conditions: 10 mg/egg ref 6; cited from earlier work
smiles,measurement,setting,value
"CC(C=O)Cc1ccc(C(C)(C)C)cc1 (centres unmarked) [Lilial, 3-(4-(tert-butyl)phenyl)-2-methylpropanal]",Effect on complexes I and II of the electron transport chain,[1],inhibit complexes I and II
same,"Mutagenic activity, Ames test",[2],"increased number of revertant colonies were detected only for the Salmonella strain TA1535, but it was not reproducible"
same,Genotoxicity at the chromosomal level (clastogenicity or aneuploidy) or single-strand breaks,[3],did not induce genotoxicity
same,Genotoxicity result,[4]; 100 µM,Non genotoxic
same,MoA (mean fluorescence values over area of the nuclei),"[4]; 4h_S9, lilial 100 µM",0.20
same,MoA (mean fluorescence values over area of the nuclei),"[4]; 4 h, without S9, lilial 100 µM",0.11
same,MoA (mean fluorescence values over area of the nuclei),"[4]; 24 h, lilial 100 µM",0.03
same,KeratinoSens assay result,[5],negative
same,Decrease in cell viability,[6],23%
same,Estrogenic activity (expression of transfected reporter and endogenous pS2 gene),[7]; MCF7 in vitro ref 8,very weak estrogenic activity
same,Cell doublings,"[7]; lilial 100 µM, estrogen 10 nM, unaffected control 1.8 doublings ref 8",2.4 doublings
same,Decrease in cell viability,[8],65%
same,NRF2-ARE signal pathway activation result,[9],Non activator
same,NRF2-ARE signal pathway activation result,[9]; listed as lilial,neither the NF-kB (Fig. 7) nor NRF2 (Fig. 8) signalling pathway was activated
same,MF (/106) mutation frequency,"[10]; Table 4, With S9",6 ± 5 /106
same,NMC (number of mutant colonies),"[10]; Table 4, Without S9",0
same,Mutagenicity result,[11],Non mutagenic
same,Mutagenicity result,[11]; listed as lilial,not mutagenic
same,MF (/10^6) mutation frequency,"[11]; Table 3, without activation, lilial 50 µM, EMS 240 µg/ml (2 mM), 4 h",9 ± 4 /10^6
same,NMC (number of mutant colonies),"[11]; Table 4, With S9, lilial 500 µM, 3MC 2 µg/ml",1 ± 1
same,Level of NRF2 protein,[12],significant increase
same,Effects on fertility and reproductive performance,[13],no adverse effects
same,In vitro dermal absorption,[14],25.7%
same,In vitro dermal absorption,[15],78.4%
same,"Oral dose that reduced body weight, gave clinical and systemic toxicity",[16],≥ 50 mg/kg/day
same,DNA strand breaks in the comet assay,[17],2.0 fold
